We go through 9 molecules from patent publication US8394950B2, “Analogues of coformycin and their use for treating protozoan parasite infections” (Industrial Research Limited, priority 2006, dated 2013).

Where two headings read alike, the source gives them in different places.

Broadly, the IC50 is the concentration needed to halve the response being measured.

For data set [1] the following is noted: in vivo; cited from earlier work.
The subject of data set [2] is Plasmodium knowlesi. Particulars: single dose, primates with Plasmodium knowlesi; cited from earlier work.
Data set [3] addresses T1, PfADA (Plasmodium falciparum, UniProt Q8IJA9).
T1 sequence (Q8IJA9 1-367): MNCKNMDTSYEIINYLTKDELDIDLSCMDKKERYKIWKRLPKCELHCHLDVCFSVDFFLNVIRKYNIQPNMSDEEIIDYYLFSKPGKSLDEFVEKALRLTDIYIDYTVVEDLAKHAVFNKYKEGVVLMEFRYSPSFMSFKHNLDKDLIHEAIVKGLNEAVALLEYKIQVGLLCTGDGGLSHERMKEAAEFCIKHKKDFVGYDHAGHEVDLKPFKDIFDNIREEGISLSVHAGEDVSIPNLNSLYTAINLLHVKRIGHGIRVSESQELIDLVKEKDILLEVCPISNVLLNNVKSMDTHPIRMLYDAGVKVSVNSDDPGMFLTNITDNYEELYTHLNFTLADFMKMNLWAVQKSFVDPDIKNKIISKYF
The data set is described as follows: biochemical. In kind it is biochemical. Here is the method:
(§1) Inhibition studies measured both initial and slow-onset rates to establish both the initial dissociation constant (Ki) and the steady-state dissociation constant (Ki*) as previously described [Kicska, G. A., Tyler, P. C., Evans, G. B., Furneaux, R. H., Kim, K., and Schramm, V. L. (2002) J Biol Chem 277, 3219-3225.]. Kd is the lower of these values.
(§2) Concentrations of inhibitors were determined spectrophotometrically using the extinction coefficient of 8250 M^−1cm^−1 at 282 nm.
(§3) (V. L. Schramm, D. C. Baker, Biochemistry, 1985, 24, 641-646). Inhibitor concentrations ranging from 10 μM to 2 nM were used for determination of the inhibition constants and an enzyme concentration of 1 nM. The Ki values were determined by fitting the initial rate and inhibitor concentrations to the following expression of competitive inhibition: (V′o/Vo)=(KM+[S])/(KM+[S]+(KM[I]/Ki)) where V′o is the initial rate in the presence of inhibitor, and Vo is the initial rate in the absence of inhibitor, [I] is the inhibitor concentration, and [S] is the substrate concentration.

For data set [4], the target named is T2, BtADA (Bos taurus, UniProt P56658).
T2 construct: bovine adenosine deaminase from bovine spleen; purchased Sigma-Aldrich Chemical Company; host or cells: bovine spleen
T2 sequence (P56658 1-363): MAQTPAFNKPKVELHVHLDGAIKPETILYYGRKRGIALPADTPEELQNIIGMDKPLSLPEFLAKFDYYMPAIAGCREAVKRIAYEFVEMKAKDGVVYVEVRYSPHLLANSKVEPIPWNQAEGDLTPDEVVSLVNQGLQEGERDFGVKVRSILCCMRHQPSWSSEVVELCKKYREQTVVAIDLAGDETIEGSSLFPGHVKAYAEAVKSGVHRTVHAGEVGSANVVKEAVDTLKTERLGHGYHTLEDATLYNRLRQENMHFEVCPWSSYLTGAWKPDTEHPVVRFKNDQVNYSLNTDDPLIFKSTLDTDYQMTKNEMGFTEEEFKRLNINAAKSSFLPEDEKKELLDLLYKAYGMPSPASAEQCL
The data set is described as follows: Inhibition of bovine adenosine deaminase (adenosine to inosine, absorbance change). The data set is classed as biochemical. How it is done: as §1, §2, §3

In data set [5] the test system is P. falciparum. Particulars: cited from earlier work; for killing of P. falciparum in culture (in words): in culture / growing in human erythrocytes.
Data set [6] concerns P. falciparum. Description: Visual inspection of parasitemia in infected red blood cells after 48 hours. In kind it is cell-based. As to conditions: for parasitemia after 48 hours: 1% parasitemia initially.
For data set [7], the system named is P. falciparum strain 3D7. The data set is described as follows: P. falciparum culture kill curves, uptake of tritiated ethanolamine in red blood cells. The data set is classed as cell-based. Particulars: for IC50: read-out: IC50, prevention of growth of P. falciparum (uptake of tritiated ethanolamine). Here is the method:
Human erythrocytes were collected from local volunteers under protocol CCI 00-31 or CCI 99-240 of the Albert Einstein College of Medicine. Cultures of P. falciparum strain 3D7 were grown in RPMI supplemented with 0.5% Albumax II (Invitrogen) and were sorbitol-synchronized twice before initiation of the 72 hour assay in 96-well plates with a total volume of 200 μL at 1% hematocrit and 0.8% parasitemia (100% rings). […] Drugs were dissolved in water and diluted with media prior to addition to cultures. […] After 54 h, cell cultures were frozen and thawed to disrupt cells, and the mixtures were harvested on glass fiber filters. Filters were counted in a Winspectral 1414 scintillation counter. Experiments were done twice with six replicate wells for each experiment. Individual data points more than two standard deviations from the mean were discarded. For some experiments, parasitemias were counted on Giemsa-stained smears of cultures treated in parallel.

Data set [8] has as its target T3, HsADA (Homo sapiens, UniProt P00813).
T3 construct: Human adenosine deaminase from human erythrocytes; purchased Sigma-Aldrich Chemical Company; host or cells: human erythrocytes
T3 sequence (P00813 1-363): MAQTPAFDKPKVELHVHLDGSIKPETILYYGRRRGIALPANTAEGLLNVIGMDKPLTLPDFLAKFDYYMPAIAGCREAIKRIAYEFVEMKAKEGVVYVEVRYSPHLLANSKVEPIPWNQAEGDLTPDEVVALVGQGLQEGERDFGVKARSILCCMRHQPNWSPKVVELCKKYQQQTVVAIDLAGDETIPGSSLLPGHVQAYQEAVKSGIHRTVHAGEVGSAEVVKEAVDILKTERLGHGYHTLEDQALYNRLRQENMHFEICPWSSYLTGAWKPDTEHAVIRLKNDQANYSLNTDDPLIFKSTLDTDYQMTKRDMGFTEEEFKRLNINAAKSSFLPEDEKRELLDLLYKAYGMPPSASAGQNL
The data set is described as follows: Inhibition of human adenosine deaminase (adenosine to inosine, absorbance change). In kind it is biochemical. Here is the method:
as §1, §2, §3

[9] abbreviates: initial dissociation constant, 100 μM adenosine, pH 7.0, 30° C., read-out: PfADA Ki.
The mark [10] stands for this setting: no detectible slow onset, read-out: dissociation constants (PfADA).
[11] abbreviates: methylthioadenosine (100 μM) plus compound (10 μM).
[12] abbreviates: methylthioadenosine (100 μM) alone.

With `OC[C@H]1O[C@@H](n2cnc3c2NC=NC[C@H]3O)C[C@@H]1O` [2′-deoxycoformycin], in data set [1], the “toxicity in mammals (in words)” value is “highly toxic”. For the same molecule, the “effect on parasitemia (in words)” value in data set [2] was “dramatically reduced parasitemia”.
As for `O[C@@H]1CNC=Nc2c1ncn2[C@H]1C[C@H](O)[C@@H](CSc2ccccc2)O1` [5′-PhS-2′-deoxycoformycin (18), (8R)-3-(2′-deoxy-5′-phenylthio-β,D-erythro-pentofuranosyl)-8-hydroxy-3,6,7,8-tetrahydroimidazo[4,5-d][1,3]diazepine], in data set [3], the “inhibition of PfADA (in words)” value is “no detectible slow onset”. Further, the results for the Ki in data set [3] (setting [9]), in data set [3] (setting [10]) and in data set [4] (read-out: BtADA Ki) were 61 ± 11 nM, 61 nM and greater than 10000 nM, respectively.
With `O=c1[nH]cnc2c([C@@H]3N[C@H](CO)[C@@H](O)[C@H]3O)c[nH]c12` [Immucillin-H], in data set [5] (P. falciparum-infected erythrocytes, simultaneous inhibition of host and parasite PNP), the “time to purine-less death” value is no more than 24 h.
As to `OC[C@H]1O[C@@H](n2cnc3c2N=CNC[C@H]3O)[C@H](O)[C@@H]1O` [Coformycin], the “parasitemia after 48 hours” value in data set [6] (setting [11]) turned out to be 1%. In addition, in data set [6] (setting [11]), the “parasites in the trophozoite form after 48 hours” value came to 100%. For the same molecule, the “potency relative to 5′-methylthiocoformycin (times more potent)” value in data set [3] (PfADA) was “about 5 times”. Besides, the Ki in data set [3] (PfADA Ki (nM), initial dissociation constant, 100 μM adenosine, pH 7.0, 30° C.) was 0.68 ± 0.07 nM; in data set [3] (PfADA Ki^a (nM), slow onset equilibrium dissociation constant) it was 0.08 ± 0.02 nM; in data set [3] (tightest dissociation constants, slow onset inhibition, range over all three enzymes (BtADA, HsADA, PfADA)) it was 0.027 to 0.11 nM; in data set [4] (BtADA Ki (nM), initial dissociation constant, 100 μM adenosine, pH 7.0, 30° C., >10,000 = no inhibition at 10 μM) it was 1.1 ± 0.4 nM; in data set [4] (BtADA Ki^a (nM), slow onset equilibrium dissociation constant), 0.06 ± 0.01 nM; in data set [8] (HsADA Ki (nM), initial dissociation constant, 100 μM adenosine, pH 7.0, 30° C., >10,000 = no inhibition at 10 μM), 13.9 ± 3.4 nM. The molecule further displayed a Ki in data set [8] (HsADA Ki^a (nM), slow onset equilibrium dissociation constant) of 0.11 ± 0.02 nM. Besides, in data set [7] (Plasmodium falciparum, 3D7, Erythrocyte, 72 h), the IC50 amounted to 3.5 nM. Also, the “inhibition of bovine ADA (in words)” value in data set [4] (mammalian ADAs) is recorded as “inhibiting mammalian ADAs with equivalent potency”. The “inhibition of human ADA (in words)” value in data set [8] (mammalian ADAs) was “inhibiting mammalian ADAs with equivalent potency”.
In the case of “(8R)-8-hydroxy-3-(5-methylthio-β-D-ribofuranosyl)-3,6,7,8-tetrahydroimidazo[4,5-d][1,3]diazepine [5′-MeS-Coformycin (8)]”, in data set [6] (setting [11]), the “parasitemia after 48 hours” value was 1% and the “parasites in the trophozoite form after 48 hours” value is recorded as 100%. Further, in data set [7], the “killing of P. falciparum growing in human erythrocytes (in words)” value is reported as “kills P. falciparum growing in human erythrocytes”. The IC50 in data set [7] (strain 3D7 in red blood cells, 72 hour assay, no hypoxanthine supplementation) was found to be 62 nM.
Consider `CCCSC[C@H]1O[C@@H](n2cnc3c2N=CNC[C@H]3O)C[C@@H]1O` [5′-PrS-2′-deoxycoformycin (17), (8R)-3-(2′-deoxy-5′-propylthio-β,D-erythro-pentofuranosyl)-8-hydroxy-3,6,7,8-tetrahydroimidazo[4,5-d][1,3]diazepine], for which the “inhibition of PfADA (in words)” value in data set [3] is on record as “no detectible slow onset”. Besides, the Ki in data set [3] (setting [9]) was 12 ± 1 nM; in data set [3] (setting [10]), 12 nM; in data set [4] (read-out: BtADA Ki), greater than 10000 nM; in data set [8] (read-out: HsADA Ki) it was greater than 10000 nM.
On to `CSC[C@H]1O[C@@H](n2cnc3c2N=CNC[C@H]3O)C[C@@H]1O` [5′-MeS-2′-deoxycoformycin (16), (8R)-3-(2′-deoxy-5′-methylthio-β,D-erythro-pentofuranosyl)-8-hydroxy-3,6,7,8-tetrahydroimidazo[4,5-d][1,3]diazepine], for which the Ki in data set [3] (setting [9]) was 2.3 ± 0.8 nM; in data set [3] (slow onset equilibrium dissociation constant, read-out: PfADA Ki^a), 0.73 ± 0.22 nM; in data set [4] (read-out: BtADA Ki), greater than 10000 nM; in data set [8] (read-out: HsADA Ki), greater than 10000 nM.
For `CSC[C@H]1N[C@@H](c2c[nH]c3c(=O)[nH]cnc23)[C@H](O)[C@@H]1O` [5′-Methylthio-Immucillin-H], the “killing of P. falciparum in culture (in words)” value was “able to kill P. falciparum growing in human erythrocytes” in data set [5] and “kill P. falciparum in culture” in data set [5] (listed as 5′-methylthio-Immucillin-H).
Consider 5′-methylthioadenosine, for which, in data set [6] (setting [12]), the “parasitemia after 48 hours” value worked out at 8% and the “parasites in the ring form after 48 hours” value came out at 97%.
